Assay results as given in paper PMC11960843, “Exploration of the tunability of BRD4 degradation by DCAF16 trans-labelling covalent glues” (European journal of medicinal chemistry, 2024).
Where two headings read alike, the source gives them in different places.

Tests used:
BRD4BD1 = BRD4BD1 (Homo sapiens, UniProt O60885); test: BRD4 AlphaScreen competition assay (JQ1-biotin displacement), BRD4BD1; format: binding
BRD4BD2 [1] = molecular target: T1, BRD4BD2 (Homo sapiens, UniProt O60885); test: BRD4 AlphaScreen competition assay (JQ1-biotin displacement), BRD4BD2; format: binding
glutathione = test: GSH stability (glutathione reactivity) assay by LC-MS/MS; format: physicochemical; conditions: PBS containing 5 mM reduced glutathione; PBS + 5 mM GSH; extrapolated from 240 min assay
Source text: Furthermore, we wanted to determine the kinetics of the BRD4BD2-DCAF16 interaction given its covalent nature. […] Additionally, to understand the relationship between ternary complex formation kinetics and warhead reactivity we measured the depletion of the covalent analogs in the presence of glutathione using MS (Table S2). […].

BRD4BD2 [2] = molecular target: T1, BRD4BD2; test: BRD4BD2-eGFP and mCherry flow reporter degradation assay, wild type K562 cells; conditions: for Dmax: K562, read-out: maximal degradation (Dmax/16h) of BRD4BD2, K562 cells, 16 h incubation; for DC50: read-out: DC50 of BRD4BD2 degradation; for DC50 / DCAF16 dependent BRD4BD2 degradation (in words): K562 cells, 16 h incubation
Source text: This assay involves the co-expression of mCherry with BRD4BD1/2 fused to an enhanced green fluorescent protein (eGFP) tag, and the subsequent fluorescence measurement of BRD4BD1/2-eGFP normalized to mCherry as a readout for BRD4BD1/2 degradation. It allows for a quantitative, rapid, and facile screening of several MGDs, in a dose-and time-dependent manner. […] Thus, the BRD4BD2 stability system was used to test all subsequent GNE011 analogs in wild type and DCAF16−/− cells.
One day after infection, reporter cells were selected with puromycin at a concentration of 2 μg/mL.
(§5) K562 cells stably expressing degradation reporter were dosed with DMSO or degraders at various times and concentrations using D300e Digital Dispenser (HP). The fluorescent signal was quantified by flow cytometry (LSRFortessa flow cytometer, BD Biosciences) and analyzed using FlowJo (flow cytometry analysis software, BD Biosciences). The geometric mean of the eGFP and mCherry fluorescent signal for round and mCherry-positive cells was calculated. GFP expression was normalized to mCherry signal and drug treatments were compared to DMSO controls.

BRD4 [3] = molecular target: T2, BRD4 (Homo sapiens, UniProt O60885); test: Western blot of BRD4 degradation, wild-type K562 cells; format: cell-based; set-up: an 11 amino acid peptide knock-in tag to a protein-of-interest using CRISPR insertion; endogenous in cells; conditions: wild-type K562, 1 μM, 16 h
Procedure: (§1) Western blotting was used to determine the degradation potencies of the covalent BRD4 degraders.
(§2) Cells were washed with PBS and lysed in RIPA lysis buffer (Thermo Fisher Scientific) with Halt Protease Inhibitor Cocktail (Thermo Fisher Scientific) and Benzonase (Sigma-Aldrich) for 20 min on ice. The insoluble fraction was removed by centrifugation, the protein concentration was quantified using a BCA protein assay kit (Thermo Fisher Scientific), and an equal amount of lysate was run on SDS–PAGE 4–12% Bis–Tris Protein Gels (Thermo Fisher Scientific) and then transferred to nitrocellulose membrane with a XCell II Blot Module Wet Tank Transfer System (Thermo Fisher Scientific). Membranes were blocked in Intercept (PBS) Blocking Buffer (LI-COR Biosciences) and incubated with primary antibodies overnight at 4 °C. The membranes were then washed in Tris-buffered saline with Tween-20 (TBS-T), incubated for 1 h with secondary IRDye-conjugated antibodies (LI-COR Biosciences) and washed three times in TBS-T for 5 min before near-infrared western blot detection on an Odyssey Imaging System (LI-COR Biosciences).

BRD4 [4] = molecular target: T2, BRD4; test: Washout experiment, Western blot of BRD4 degradation in K562 cells; format: cell-based; set-up: an 11 amino acid peptide knock-in tag to a protein-of-interest using CRISPR insertion; endogenous in cells; conditions: K562, 1 μM; for BRD4 degradation after washout compared to no washout (in words): 4 h treatment, 20 h compound-free vs 24 h no washout
Procedure: This experiment involves cell treatment and incubation with a ‘covalent’ compound, followed by a wash-step where the cells are washed and resuspended in compound-free cell media.
Cells were washed with PBS and lysed in RIPA lysis buffer (Thermo Fisher Scientific) with Halt Protease Inhibitor Cocktail (Thermo Fisher Scientific) and Benzonase (Sigma-Aldrich) for 20 min on ice. […] Membranes were blocked in Intercept (PBS) Blocking Buffer (LI-COR Biosciences) and incubated with primary antibodies overnight at 4 °C. The membranes were then washed in Tris-buffered saline with Tween-20 (TBS-T), incubated for 1 h with secondary IRDye-conjugated antibodies (LI-COR Biosciences) and washed three times in TBS-T for 5 min before near-infrared western blot detection on an Odyssey Imaging System (LI-COR Biosciences).

[5] = molecular target: T3, BRD4BD2-DCAF16 ternary complex (Homo sapiens, UniProt O60885+Q9NXF7); test: DDB1-DCAF16-BRD4BD2 TR-FRET ternary complex formation assay; format: biochemical; conditions: for TR-FRETmax (520 nm/490 nm ratio): 6 h degrader incubation; for incubation time of saturation / maximum TR-FRET signal: measured at 1, 2, 4, 6 and 24 h; for BRD4BD2-DCAF16 ternary complex formation / DCAF16 recruitment (in words): time-dependent TR-FRET
T3 construct: E3 ligase to bromodomain 2 (BRD4BD2); His6 (N); StrepII (N); Avi (N); made in house; host or cells: BRD4BD2: E. coli (pET100/D-TOPO)
Source text: To determine the relationship between covalent warheads and DCAF16 recruitment to BRD4BD2, we used a time-resolved fluorescence energy transfer (TR-FRET) assay to measure induced BRD4BD2-DCAF16 ternary complex formation (Fig. 3A).
Furthermore, we wanted to determine the kinetics of the BRD4BD2-DCAF16 interaction given its covalent nature. […] Additionally, to understand the relationship between ternary complex formation kinetics and warhead reactivity we measured the depletion of the covalent analogs in the presence of glutathione using MS (Table S2). […] Titrations of compounds to induce the DCAF16-BRD4BD complex were carried out by mixing 100 nM biotinylated BRD4BD2, 500 nM BODIPY-FL labeled DDB1ΔB-DCAF16 variants, and 2 nM terbium-coupled streptavidin (Invitrogen) in an assay buffer containing 50 mM HEPES pH 8.0, 200 mM NaCl, 0.1% Pluronic F-68 solution (Sigma), 0.5% bovine serum albumin (BSA) (w/v) and 1 mM TCEP. […] The TR-FRET signal of each data point was extracted by calculating the 520/490 nm ratio.

BRD4 [6] = molecular target: T2, BRD4; test: BRD4-HiBiT assay, WT JURKAT cells; format: cell-based; set-up: an 11 amino acid peptide knock-in tag to a protein-of-interest using CRISPR insertion; endogenous in cells; host or cells: JURKAT, HiBiT-edited (wild type or DCAF16 knockout); conditions: 6 h
Procedure: (§3) Thereafter, we sought to characterize the BRD4 cellular degradation potencies in a dose-dependent manner at a shorter time point to minimize secondary effects. This was performed using the bioluminescent HiBiT-BRD4 assay, which consists of an 11 amino acid peptide knock-in tag to a protein-of-interest using CRISPR insertion. A complementary polypeptide (LgBiT) detects and interacts with all HiBiT tagged proteins, thereby reconstituting a luminescent NanoBiT enzyme, that can be quantified by its bioluminescence. WT and DCAF16 KO JURKAT cell lines expressing the BRD4-HiBiT system were generated to quantify dose-dependent BRD4 degradation after 6 h incubation (Fig. 4C).
(§4) After 6 h, the plates were subjected to Nano-Glo HiBiT Lytic detection system (Promega, #N3040) as described in manufacturer's manual. The assays were performed in biological triplicate. DC50 values were determined using a non-linear regression curve fit in GraphPad PRISM 9.5.1.

BRD4BD2 [7] = molecular target: T1, BRD4BD2; test: BRD4BD2-eGFP and mCherry flow reporter degradation assay, DCAF16 KO K562 cells
Source text: In order to investigate the degradation of BRD4 by GNE011 and related analogs, we used a fluorescent stability reporter assay reported previously (Fig. 2A) [17]. This assay involves the co-expression of mCherry with BRD4BD1/2 fused to an enhanced green fluorescent protein (eGFP) tag, and the subsequent fluorescence measurement of BRD4BD1/2-eGFP normalized to mCherry as a readout for BRD4BD1/2 degradation. It allows for a quantitative, rapid, and facile screening of several MGDs, in a dose-and time-dependent manner. […] Thus, the BRD4BD2 stability system was used to test all subsequent GNE011 analogs in wild type and DCAF16−/− cells.
Lentivirus containing sgRNA was transduced to 2 × 10^6 of K562-Cas9 cells at 10% volume ratio by spin infection. FACS sorting was performed to enrich BFP+ cells one week after infection. […] Clonal sgDCAF16-expressing K562-Cas9 cells were isolated after one month of expansion, and the genomic sequences were validated via deep sequencing of PCR amplicons targeting sgDCAF16 cutting sites (MGH CCIB DNA Core Service).
as §5

BRD4 [8] = molecular target: T2, BRD4; test: BRD4-HiBiT assay, DCAF16 KO JURKAT cells; format: cell-based; set-up: an 11 amino acid peptide knock-in tag to a protein-of-interest using CRISPR insertion; endogenous in cells; host or cells: JURKAT, HiBiT-edited (wild type or DCAF16 knockout); conditions: 6 h
Procedure: as §3, §4

BRD4 [9] = molecular target: T2, BRD4; test: Western blot of BRD4 degradation, DCAF16 KO K562 cells; format: cell-based; set-up: an 11 amino acid peptide knock-in tag to a protein-of-interest using CRISPR insertion; endogenous in cells; conditions: DCAF16 KO K562, 1 μM, 16 h
Procedure: as §1, §2

T3 sequence (Q9NXF7 whole entry, other chains not shown): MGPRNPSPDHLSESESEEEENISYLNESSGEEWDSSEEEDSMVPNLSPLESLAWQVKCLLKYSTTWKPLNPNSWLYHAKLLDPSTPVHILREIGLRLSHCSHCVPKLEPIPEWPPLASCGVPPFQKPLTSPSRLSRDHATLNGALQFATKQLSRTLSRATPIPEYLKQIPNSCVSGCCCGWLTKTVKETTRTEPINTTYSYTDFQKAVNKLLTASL

Row | Structure (SMILES) | IC50 (BRD4BD1) [nM] | IC50 (BRD4BD2 [1]) [nM] | half-life (glutathione) [h] | Dmax (BRD4BD2 [2]) [%] | DC50 (BRD4BD2 [2]) [nM] | BRD4 degradation by Western blot (in words) (BRD4 [3]) | BRD4 degradation after washout compared to no washout (in words) (BRD4 [4]) | IC50 (BRD4BD1; read-out: IC50 BRD4BD1) [nM] | IC50 (BRD4BD2 [1]; read-out: IC50 BRD4BD2) [nM] | TR-FRETmax (520 nm/490 nm ratio) [5] | incubation time of saturation / maximum TR-FRET signal [5] [h] | BRD4 degradation (BRD4 [6]) [%] | BRD4 degradation (in words) (BRD4 [6]) | BRD4BD2 degradation activity in DCAF16 knockout cells (in words) (BRD4BD2 [7]) | BRD4 degradation in DCAF16 KO (in words) (BRD4 [8]) | DCAF16 dependent BRD4BD2 degradation (in words) (BRD4BD2 [2]) | BRD4 degradation without washout (in words) (BRD4 [4]; 24 h no washout) | BRD4BD2-DCAF16 ternary complex formation / DCAF16 recruitment (in words) [5] | BRD4 degradation by Western blot in DCAF16 KO (in words) (BRD4 [9]) | BRD4 degradation (BRD4 [6]; at 10 μM)
1 | Cc1sc2c(c1C)C(c1ccc(N)cc1)=N[C@@H](CC(=O)OC(C)(C)C)c1nnc(C)n1-2 [MMH248, tert-butyl (S)-2-(4-(4-aminophenyl)-2,3,9-trimethyl-6H-thieno[3,2-f][1,2,4]triazolo[4,3-a][1,4]diazepin-6-yl)acetate] | 12.5 | 4.29 |  |  |  |  |  |  |  |  |  |  |  |  |  |  |  |  |  | 
2 | Cc1sc2c(c1C)C(c1ccc(NC(=O)CCl)cc1)=N[C@@H](CC(=O)OC(C)(C)C)c1nnc(C)n1-2 [MMH249, tert-butyl (S)-2-(4-(4-(2-chloroacetamido)phenyl)-2,3,9-trimethyl-6H-thieno[3,2-f][1,2,4]triazolo[4,3-a][1,4]diazepin-6-yl)acetate] |  |  | 8.85 | 56 | 8 | moderate degradation | no or minimal difference | 3.98 | 2.59 | 0.77 | 24 | < 60 | noticeable BRD4 degradation | almost entirely ablated | completely rescued by DCAF16 KO |  |  |  |  | 
3 | Cc1sc2c(c1C)C(c1ccc(I)cc1)=N[C@@H](CC(=O)OC(C)(C)C)c1nnc(C)n1-2 [MMH263, tert-butyl (S)-2-(4-(4-iodophenyl)-2,3,9-trimethyl-6H-thieno[3,2-f][1,2,4]triazolo[4,3-a][1,4]diazepin-6-yl)acetate] | 11.7 | 4.96 |  |  |  |  |  |  |  |  |  |  |  |  |  |  |  |  |  | 
4 | COC(=O)/C=C/c1ccc(C2=N[C@@H](CC(=O)OC(C)(C)C)c3nnc(C)n3-c3sc(C)c(C)c32)cc1 [MMH269, methyl (S,E)-3-(4-(6-(2-(tert-butoxy)-2-oxoethyl)-2,3,9-trimethyl-6H-thieno[3,2-f][1,2,4]triazolo[4,3-a][1,4]diazepin-4-yl)phenyl)acrylate] |  |  | > 12.5 |  |  |  |  | 10.5 | 5.07 | 0.18 |  |  |  |  |  | almost no DCAF16 dependent BRD4BD2 degradation | showed BRD4 degradation in 24 h no washout experiments | no significant DCAF16 recruitment |  | 
5 | Cc1sc2c(c1C)C(c1ccc(/C=C/C=O)cc1)=N[C@@H](CC(=O)OC(C)(C)C)c1nnc(C)n1-2 [TMX1, tert-butyl (S,E)-2-(2,3,9-trimethyl-4-(4-(3-oxoprop-1-en-1-yl)phenyl)-6H-thieno[3,2-f][1,2,4]triazolo[4,3-a][1,4]diazepin-6-yl)acetate] |  |  | 6.92 | 75 | 64 | nearly complete BRD4 degradation | no or minimal difference | 8.78 | 33.9 | 1.34 | 1 | < 60 | noticeable BRD4 degradation |  | completely rescued by DCAF16 KO |  |  |  | completely rescued by DCAF16 KO | 
6 | Cc1sc2c(c1C)C(c1ccc(C#CCO)cc1)=N[C@@H](CC(=O)OC(C)(C)C)c1nnc(C)n1-2 [TMX458, tert-butyl (S)-2-(4-(4-(3-hydroxyprop-1-yn-1-yl)phenyl)-2,3,9-trimethyl-6H-thieno[3,2-f][1,2,4]triazolo[4,3-a][1,4]diazepin-6-yl)acetate] |  |  |  | 10 | > 10000 |  |  | 10.1 | 3.92 | 0.16 |  |  |  |  |  | completely inactive |  | no significant DCAF16 recruitment |  | 
7 | Cc1sc2c(c1C)C(c1ccc(C#CC=O)cc1)=N[C@@H](CC(=O)OC(C)(C)C)c1nnc(C)n1-2 [TMX4128, tert-butyl (S)-2-(2,3,9-trimethyl-4-(4-(3-oxoprop-1-yn-1-yl)phenyl)-6H-thieno[3,2-f][1,2,4]triazolo[4,3-a][1,4]diazepin-6-yl)acetate] |  |  | 8.83 | 69 | 703 | nearly complete BRD4 degradation | no or minimal difference | 2.2 | 21.7 | 0.65 | 1 | < 60 | noticeable BRD4 degradation |  | completely rescued by DCAF16 KO |  |  | disintegration of the ternary complex overtime | completely rescued by DCAF16 KO | ~ 73%
